Test results reported in patent US20020032154A1, “Interferon-suppressing placental lactogen peptides” (priority 2000, published 2002).

Experiments:
[1] = test system: MHC class II antigens (HLA-DR, DP, and DQ); assay: Flow cytometry of IFN-gamma-inducible MHC class II antigens in stably transfected HeLa cells; assay type: cell-based, human; details: HeLa cells stably expressing the peptide; any dose of IFN-gamma up to 1000 U/ml, 42 h; vs vector-transfected control cells
Experimental: (§1) For this reason the function of the cloned cDNA was tested directly using pools of stably transfected HeLa cells. Expression of three families of endogenous IFN-gamma-responsive genes in this reporter cell line was determined by flow cytometry using monoclonal antibodies that recognize MHC class II antigens (HLA-DR, DP, and DQ alpha chains), MHC class I heavy chains (HLA-A, B, and C ), and ICAM-1 antigen.
(§2) The hPL(1-28)-encoding cDNA was subcloned into the mammalian expression vector pSH4-hphm using standard methods. HeLa cells (100 mm dishes) were transfected with […] of HPL(1-28)-pSH4-hph^m DNA or empty vector (negative control) by calcium phosphate-mediated transfection. Stable transfectants were selected with hygromycin at […] for at least 16 days. Flow cytometric analysis was performed on stably transfected pools of cells that were treated in culture with IFN-gamma (0, 20, 66, 200, and 1000 U/ml) for 42 h and suspended for analysis by light trypsinization. […] Antibody binding was detected with FITC-goat anti-mouse antibody (Biomeda), and 20,000 cells were analyzed with a FACScan (Becton-Dickinson).

[2] = test system: MHC class I antigens (HLA-A, B, and C); assay: Flow cytometry of constitutive and IFN-gamma-inducible MHC class I antigens in stably transfected HeLa cells; assay type: cell-based, human; details: HeLa cells stably expressing the peptide
Experimental: as §1, §2

ICAM-1 antigen = assay: Flow cytometry of ICAM-1 antigen in stably transfected HeLa cells; assay type: cell-based, human; details: HeLa cells stably expressing the peptide
Experimental: as §1
The hPL(1-28)-encoding cDNA was subcloned into the mammalian expression vector pSH4-hphm using standard methods. HeLa cells (100 mm dishes) were transfected with […] of HPL(1-28)-pSH4-hph^m DNA or empty vector (negative control) by calcium phosphate-mediated transfection. Stable transfectants were selected with hygromycin at […] for at least 16 days. Flow cytometric analysis was performed on stably transfected pools of cells that were treated in culture with IFN-gamma (0, 20, 66, 200, and 1000 U/ml) for 42 h and suspended for analysis by light trypsinization. Cells were stained at 4° C. with 10 µg/ml solutions of mAb CR 3/43 (Dako) specific for MHC class II antigens HLA-DP, HLA-DQ, and HLA-DR, mAb G46-2.6 (Pharmingen) specific for MHC class I antigens HLA-A, HLA-B, and HLA-C heavy chains, mAb HA58 (Pharmingen) specific for ICAM-1 antigen, and either non-immune mouse IgG1 or IgG2a as negative control. Antibody binding was detected with FITC-goat anti-mouse antibody (Biomeda), and 20,000 cells were analyzed with a FACScan (Becton-Dickinson).

[3] = intravenous insulin tolerance test; cited from earlier work
[4] = glucose-dependent manner; cited from earlier work
insulin receptor = insulin receptor (Homo sapiens, UniProt P06213); details: isolated cells; cited from earlier work
hGH receptor = target: T1, hGH receptor (Homo sapiens, UniProt P10912); details: relative to hGH; cited from earlier work
T1 sequence (P10912 19-638): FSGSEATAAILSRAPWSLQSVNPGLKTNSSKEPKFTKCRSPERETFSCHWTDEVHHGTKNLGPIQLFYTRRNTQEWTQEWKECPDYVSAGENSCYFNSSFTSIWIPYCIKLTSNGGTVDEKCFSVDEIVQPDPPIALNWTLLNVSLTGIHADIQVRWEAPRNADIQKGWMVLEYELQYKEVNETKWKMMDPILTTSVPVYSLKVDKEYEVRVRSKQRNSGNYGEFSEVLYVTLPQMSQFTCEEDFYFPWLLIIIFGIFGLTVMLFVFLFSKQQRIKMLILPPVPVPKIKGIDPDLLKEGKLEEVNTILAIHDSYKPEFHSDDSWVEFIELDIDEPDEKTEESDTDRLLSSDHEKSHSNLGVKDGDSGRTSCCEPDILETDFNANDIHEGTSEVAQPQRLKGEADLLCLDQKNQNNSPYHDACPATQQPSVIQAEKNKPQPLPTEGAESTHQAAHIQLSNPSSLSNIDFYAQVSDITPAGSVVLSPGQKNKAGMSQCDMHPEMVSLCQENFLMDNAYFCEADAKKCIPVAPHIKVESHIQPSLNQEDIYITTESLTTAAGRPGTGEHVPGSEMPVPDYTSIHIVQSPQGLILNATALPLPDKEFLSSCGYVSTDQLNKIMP

[5] = test system: peripheral blood T-lymphocyte; details: in vitro; exogenous full-length hormone; cited from earlier work
tonsil B-lymphocyte = details: in vitro; exogenous full-length hormone; cited from earlier work
[6] = test system: bovine brain capillary endothelial cell (BBCE); details: cited from earlier work

VQTVPLSRLFDHAMLQAHRAHQLAIDTY (VQTVPLSRLFKEAMLQAHRAHQLAIDTY; HOMO SAPIENS; hPL(1-28) peptide) [isolated peptide, N-terminal 28 residues of secreted human placental lactogen; tested as product of transfected cDNA]
levels of HLA-DR, DP, and DQ antigens after IFN-gamma treatment [1]: not increased
IFN-gamma-induced high level expression of class I genes ([2]; IFN-gamma treatment 42 h): did not induce high level expression
constitutive expression of MHC class I genes (HLA-A, B, and C antigens) ([2]; absence of IFN-gamma): not reduced
fraction of ICAM-1 high-level positive cells (ICAM-1 antigen; 20 U/ml of IFN-gamma): less
cells expressing ICAM-1 at high level (ICAM-1 antigen; absence of IFN-gamma treatment): More than 50%
fraction of ICAM-1 high-level positive cells (ICAM-1 antigen; higher doses of IFN-gamma (above 20 U/ml)): still lower

hGH(6-13): octapeptide representing residues 6-13 of hGH (LSRLFDNA; UniProt P01241 32-39, looked up, fragment)
hypoglycemic activity [3]: hypoglycemic activity
insulin secretion [4]: augmented
binding of insulin to insulin receptor (insulin receptor): increased

B1: hPL: full-length human placental lactogen, mature polypeptide encoded by hPL-3 and hPL-4 genes (protein, UniProt P0DML2 27-217, looked up)
Chorionic somatomammotropin …: VQTVPLSRLFDHAMLQAHRAHQLAIDTYQEFEETYIPKDQKYSFLHDSQTSFCFSDSIPTPSNMEETQQKSNLELLRISLLLIESWLEPVRFLRSMFANNLVYDTSDSDDYHLLKDLEEGIQTLMGRLEDGSRRTGQILKQTYSKFDTNSHNHDALLKNYGLLYCFRKDMDKVETFLRMVQCRSVEGSCGF
binding to the hGH receptor, weaker than hGH (hGH receptor): 2300 fold
peripheral blood T-lymphocyte mitogenic response to phytohemagglutinin [5]: reduced
tonsil B-lymphocyte mitogenic response to lipopolysaccharide (tonsil B-lymphocyte): reduced
effect on bFGF-induced BBCE cell proliferation [6]: no significant additive somatotropic effect

B2: hPRL: Human prolactin (protein, UniProt P01236 29-227, looked up)
Prolactin: LPICPGGAARCQVTLRDLFDRAVVLSHYIHNLSSEMFSEFDKRYTHGRGFITKAINSCHTSSLATPEDKEQAQQMNQKDFLSLIVSILRSWNEPLYHLVTEVRGMQEAPEAILSKAVEIEEQTKRLLEGMELIVSQVHPETKENEIYPVWSGLPSLQMADEESRLSAYYNLLHCLRRDSHKIDNYLKLLKCRIIHNNNC
effect on bFGF-induced BBCE cell proliferation [6]: no significant additive somatotropic effect
